Source: patent publication US7910624B1, “Compositions for the treatment of blood disorders” (The Trustees of Boston University, priority 1995, dated 2011)

Tests used:
K562 cells = test: Dose response, total and viable cells by trypan blue exclusion (FIG. 3); type: cell-based, human; details: up to 2.0 mM, day 4
Experimental: FIG. 3 A FIG. 3E Cell viability as determined by the comparative numbers of total and viable K562 cells in the presence of increasing concentrations of (A) phenoxyacetic acid, (B) dihydrocinnamic acid, (C) butyric acid ethyl ester, (D) arginine butyrate, and (E) isobutyramide.
Dose response curves at dosages of up to 2.0 mM were also determined for phenoxyacetic acid (PAA; FIG. 3A), dihydrocinnamic acid (DHC; FIG. 3B), butyric acid ethyl ester (BAEE; FIG. 3C), arginine butyrate (AB; FIG. 3D) and isobutyramide (IBT; FIG. 3E). Cells were counted on day 4 of treatment and viable cells identified by trypan blue exclusion.

[1] = test system: erythroid cells (peripheral blood cells); test: Erythroid cell viability by Calcein-AM fluorescent staining (FIG. 2); type: cell-based; details: 0.5 mM
Experimental: Compositions were tested for the ability to directly stimulate erythroid cell growth. Cell growth stimulation is a useful property for an agent to be used to treat anemias and distinguishes such agents from the cytotoxic drugs currently being tested for treatment of hemoglobinopathies. Cell viability analyses were performed using fluorescent staining to detect living cells. Cells were in log phase of growth in 6-well dishes when used in proliferation assays. For enumeration of living cells, wells were washed once with medium to remove nonadherent or dead cells. Remaining live cells were labeled with 2 μM 2′,7′-bis-(carboxyethyl)-5-(and 6)-carboxy-fluorescein acetoxy-methyl ester (Calcein-AM) (Molecular Probes; Eugene, Oreg.) for 20 minutes at 37° C. and washed once. Fluorescence intensity of live cells was read on a CytoFluor 2300 Fluorescence Plate Scanner (Millipore; Bedford, Mass.) at excitation and emission wavelengths of 485 and 530 nm, respectively. The fluorescence intensity of a well was proportional to the number of living cells in the well. Background fluorescence was measured separately for each plate and subtracted from all readings. Each experiment was performed in triplicate or quadruplicate. The standard deviation (SD) of repetitive readings was less than 30% of the mean. Results are depicted in FIG. 2.

[2] = test system: human erythroid cell line K562; test: Cell viability / growth of K562 by Calcein-AM fluorescence; type: cell-based; details: 0.5 mM; over 3 days
Experimental: (§1) Such activities might limit their utility for treatment of anemias such as occur in thalassemia, but alternatively would be useful for anticancer effects. To determine cell viability, human erythroid cells were cultured in the presence and absence of these compounds for 4 days and the amount of DNA fragmentation which occurred was measured.
Cell viability analyses were performed using fluorescent staining to detect living cells. Cells were in log phase of growth in 6-well dishes when used in proliferation assays. For enumeration of living cells, wells were washed once with medium to remove nonadherent or dead cells. Remaining live cells were labeled with Calcein-AM for 20 minutes at 37° C. and washed once. Fluorescence intensity of adherent live cells was read on a CytoFluor 2300 Fluorescence Plate Scanner (Millipore; Bedford, Mass.) at excitation and emission wavelengths of 485 and 530 nm, respectively. The fluorescence intensity of a well was proportional to the number of living cells in the well. Background fluorescence was measured separately for each plate and subtracted from all readings. Each experiment was performed in triplicate or quadruplicate. The standard deviation (SD) of repetitive readings was less than 30% of the mean.
At higher concentrations, still easily achievable in vivo, arginine butyrate (0.5 mM) and dihydrocinnamic acid (greater than 0.5 mM) inhibited growth of this tumor cell line by approximately 50%. Therefore, these compounds are also useful as anti-tumor agents.

[3] = test system: Human erythroleukemia cells; test: Fetal globin mRNA in erythroleukemia cells by primer extension; type: cell-based; details: 1.0 mM; 4 days
Experimental: Compounds were tested for increased expression of the human globin genes in human erythroid cells. In addition, as the cell line being tested is a tumor cell line, the assay determines if differentiation, a growth inhibitory effect on cancer cells, is induced by the compounds tested. Human erythroleukemia cells were cultured in RPMI media with 10% fetal calf serum alone or with treatment with various compounds for 4 days. Globin mRNA was quantitated by primer extension analysis. Fetal globin mRNA was compared to the amount of fetal globin mRNA produced in untreated cells during the same culture period. The quantitation was expressed as a percent of alpha globin mRNA which was constant. Results are expressed proportional to α-globin mRNA (Table 3).

human erythroid cells = test: DNA fragmentation by flow cytometry (propidium iodide); type: cell-based; details: for effect in DNA fragmentation assays: summary statement
Experimental: as §1
Flow cytometric determination of DNA profiles and DNA fragmentation were determined. Cytometric analysis was performed with a FACScan (Becton Dickenson Instruments; Columbia, Md.). The data analysis and display were performed using the Cell-Fit software program. Approximately 0.5×10^6 cells were washed twice with PBS and resuspended in 1 ml of 1% sodium citrate, 0.1% Triton X-100 and […] of propidium iodide/ml. Resulting permeabilized cells were kept in the dark at 4° C. overnight before DNA profile or DNA fragmentation analysis (Table 4).

[4] = test system: erythroid progenitor cells cultured from human cord blood; test: Fetal globin expression in human cell cultures (3H-leucine labelled globin chains, densitometry); type: cell-based
Experimental: Compositions were tested for activity in inducing fetal globin expression and protein production in erythroid progenitor cells cultured from human cord blood and analyzed as described by S. P. Perrine et al. (Blood 74: 454-60, 1989). Briefly, mononuclear cells were cultured in IMDM with 30% fetal calf serum and 2 units erythropoietin per ml to induce erythroid differentiation. Colonies were harvested on day 12-13, incubated with radio-labelled (^3H) leucine, and further incubated in leucine-free media, still in the presence of compounds, overnight. Globin composition in the erythroid cells was analyzed by laser densitometry of electrophoretically separated globin chains stained with Coomassie blue, and by autoradiography. Treated cells were incubated for 12-13 days (Table 2, Experiments A and B) or overnight (Table 2, Experiment C) in the presence of the indicated compounds and compared to untreated control cells cultured from the same human subject.

anemic juvenile baboons = test: In vivo reticulocyte proliferation and globin expression in phlebotomized anemic baboons; parameters: species or system baboon; details: for fetal reticulocytes on treatment: 4 days, baseline 4%
Experimental: Experiments were performed to determine if administration of the chemical compositions could induce fetal globin gene expression in an in vivo model similar to humans (S. P. Perrin et al., Brit. J. Haematol. 88:555-61, 1994). Briefly, chemicals were prepared as sterile pharmaceutical solutions in pH adjusted sterile water. A variety of chemical compositions were administered sequentially to some baboons. After administration of one compound, a wash-out period with no compound administration was maintained until reticulocytes returned to base line prior to administration of the next compound. This was done, at least partly, to compare the magnitude of response which occurred within the same individual animal to different compounds.
Briefly, juvenile female baboons (2 years old) were catheterized with arterial and venous catheters and phlebotomized gradually every day to maintain a moderate anemia of 7.0 to 7.5 grams hemoglobin/dl. Fetal reticulocytes, the newly produced red blood cells containing fetal globin, were assayed using a monoclonal antibody against fetal globin (HbF) as described by G. Dover et al. (Blood 67:735-38, 1986). Briefly, blood was stained with two antibodies, one specific for reticulocytes and another against fetal globin protein. The amount of antibody bound cells was determined by FACS analysis. Globin chain synthesis was assayed as described by J. B. Clegg et al. (J. Mol. Biol. 19:91-108, 1966). Briefly, reticulocytes were radio-labeled with ^3H-leucine which was incorporated in equal proportions into actively synthesized globin chains. After incubation in leucine-free media, cells were washed, and globin proteins were separated and purified by column chromatography. Radioactivity incorporated into each peak is compared and the ratios of gamma to gamma plus beta globin calculated. Each animal served as its own control with baseline monitoring assays performed for 4-6 weeks before any drug was administered. Phlebotomy was continued daily, so that peripheral HbF levels in the animals were not considered to be accurate over the short treatment time-frames and were not monitored. Safety monitoring was performed by frequent physical examinations, quantitation of food eaten, activity and frequent chemistry and hematology monitoring. Complete blood counts were assayed before, during and after treatment. Results presented were not adjusted to account for the daily phlebotomy.

[5] = test system: patient with thalassemia intermedia; test: Isobutyramide treatment of a patient with thalassemia, blood counts and hemoglobin; type: in vivo, human; details: 50 mg/kg 3 days/week
Experimental: This patient received isobutyramide at 50 mg/kg for 3 days/week over the course of the study.

[6] = test system: system A transport in K562 cells and nucleated erythroblasts from fetal liver; test: System A (neutral amino acid) transport, 3H-MAIB uptake; type: cell-based, human; details: 1 hour incubation; FIG. 12
Experimental: Inhibition of nutrient uptake is undesirable for treatment of anemias. Methyl aminoisobutyric acid (MAIB) labeled with tritium (^3H) is normally taken up by system A amino acid transport. Cold (unlabeled) compounds were added to cultures containing ^3H-MAIB and incubated for 1 hour. Cells were harvested and the amount of ^3H taken up by cells was quantitated by scintillation counting.

[7] = test system: Human mammary carcinoma cells (MCF-7); test: Human mammary carcinoma cell viability by FACS; type: cell-based; details: 1.0 mM; 4 days
Experimental: Human mammary carcinoma cells (MCF-7) were cultured alone (controls) and with arginine butyrate or isobutyramide for 4 days. Viability was assayed by FACS after incubation with a fluorescent dye taken up by viable cells (FIG. 6). Growth was decreased by 50% with isobutyramide at 1.0 mM, about 60% with arginine butyrate at 0.5 mM, and greater than 90% with arginine butyrate at 1.0 mM.

[8] = test system: erythroblast culture from peripheral blood of patients with sickle cell anemia; test: Induction of fetal globin in erythroblasts by steel factor; type: cell-based, human
Experimental: Peripheral blood was obtained from patients with sickle cell anemia. Mononuclear cells were isolated on Ficoll-Hypaque gradients. One culture was treated with 100 ng/ml steel factor for 13 days and compared with an untreated control. […] A second culture was incubated overnight with an identical dose of steel factor Plus ^3H-leucine. Amounts of labeled globin proteins synthesized in untreated (FIG. 5A) and steel factor treated (FIG. 5B) cells were determined by autoradiography and quantitated (scanned) by laser densitometry. […] The increase observed included both G-γ, and A-γ globin proteins.

[9] = 1.0 mM to 2.0 mM, untreated cells 26%
[10] = 2.0 mM, 4 days, controls 26%, 22%
[11] = 25 and 100 μg/kg subcutaneously

Molecule: CCCC(=O)OCC [BAEE, butyric acid ethyl ester]
- proliferation (dose response, FIG. 3) (K562 cells): did not significantly inhibit proliferation
- erythroid cell growth and proliferation compared to untreated controls (FIG. 2) [1]: either had no effect or stimulated erythroid cell growth and proliferation
- growth of K562 [2]: either did not inhibit, or slightly enhanced growth
- induction of fetal globin mRNA in human cells [3]: significantly increased
- Degraded DNA (human erythroid cells; [9]): 13.8%
- Degraded DNA (human erythroid cells; [10]): 13.8%
- effect in DNA fragmentation assays (human erythroid cells): reduce DNA fragmentation
- Gamma Increase ([4]; Exp. A, 0.1 mM, 12-13 days, above untreated cells): 13.0%
- Gamma Increase ([4]; Exp. B, 0.2 mM, 12-13 days): 8.5%
- Gamma Increase ([4]; Exp. C, 0.1 mM, overnight): 12.5%
- increase of fetal reticulocytes above basal levels (anemic juvenile baboons; intravenous 3 days, 500 to 1,000 mg/kg per day): over 1,100%
- increase of fetal reticulocytes (anemic juvenile baboons; intravenous 3 days, 500 to 1,000 mg/kg per day (FIG. 11)): 11.3 fold

Molecule: CC(C)C(N)=O [IBT, isobutyramide]
- erythroid cell growth and proliferation compared to untreated controls (FIG. 2) [1]: either had no effect or stimulated erythroid cell growth and proliferation
- fetal globin (HbF) ([5]; four month study period): lack of increased fetal globin
- rise of hematocrit (Hct) ([5]; four month study period): 5.8%
- rise of hemoglobin (Hgb) ([5]; four month study period): 1.6 g/dL
- rise of reticulocytes (Retics) ([5]; four month study period): about 50%
- rise of total red blood cells (RBC) ([5]; four month study period): ~1e+06 cells/µL
- Hemoglobin-A1 and hemoglobin-A2 levels ([5]; throughout the study): approximately constant
- Retics ([5]; Day 8): 2.5 ×10^6 cells
- HbF ([5]; Day 22): 0.4
- Retics ([5]; Day 22): 2.0 ×10^6 cells
- Hgb-A2 ([5]; Day 29): 7.0
- Retics ([5]; Day 29): 2.0 ×10^6 cells
- HbF ([5]; Day 36): 0.4
- Retics ([5]; Day 43): 2.0 ×10^6 cells
- RBC ([5]; Day 96, 50 mg/kg): 7.3e+06 cells/µL
- Degraded DNA (human erythroid cells; [9]): 44%
- Degraded DNA (human erythroid cells; [10]): 34%
- effect in DNA fragmentation assays (human erythroid cells): decrease cell viability
- system A transport of amino acids (3H-MAIB uptake) [6]: inhibited the neutral amino acid transport mechanism
- decrease of growth of MCF-7 [7]: 50%

Molecule: steel factor: hematopoietic factor, also referred to as kit ligand, mast cell growth factor and stem cell factor
- gamma globin expression after treatment ([8]; 100 ng/ml overnight plus 3H-leucine, increased from 17.6%): 43.3%
- gamma globin expression in BFU-e cells after treatment ([8]; 100 ng/ml, 13 days, increased from 14%): 23.3%
- Gamma globin expression, mean increase ([8]; 100 ng/ml, 13 days, versus untreated control): 16.1%
- rise in numbers of newly-formed blood cells producing fetal globin (anemic juvenile baboons; [11]): 300-500%
- rise of fetal globin chain protein (anemic juvenile baboons; [11]): 3 fold
- total increase of gamma globin expression in the bone marrow (anemic juvenile baboons; [11]): 9 fold
- fetal globin chain protein after treatment (anemic juvenile baboons; 25 and 100 μg/kg subcutaneously, undetectable before treatment): about 3 % of total non-alpha globin
- fetal reticulocytes on treatment (anemic juvenile baboons; first dose regimen: 25 μg/kg subcutaneously once daily): 15%
- fetal reticulocytes on treatment (anemic juvenile baboons; second dose regimen: 100 μg/kg subcutaneously): 12%
